Measured values taken from PMC10489817, “2-Alkyl-Substituted-4-Amino-Thieno[2,3-d]Pyrimidines: Anti-Proliferative Properties to In Vitro Breast Cancer Models” (Molecules, 2023).
Values joined by “and” are separate entries in the source; they are usually repeats but may differ in a detail not shown here. Identical values can stand only once. Like-named read-outs stand apart in the source and are kept apart here.

Tests used:
[1] = in vitro 3T3 NRU test, cytotoxicity; format: cell-based, mouse; details: mouse, BALB/3T3 clone A31 cells (mouse embryo fibroblasts)
Procedure: (§1) Compounds 2–5 were studied for cytotoxicity/phototoxicity by an in vitro 3T3 NRU-test. The cell line BALB 3T3, clone A31 (mouse embryo fibroblasts), was incubated with the test compounds at a concentration from 15 to 4000 µg/mL for 24 h at 37 °C, 5% CO2, and 95% humidity. The cytotoxicity and phototoxicity were expressed in percentages relative to the negative control determined. […] Based on the dose–response curves, the CC50/PC50 values (50% cytotoxic/phototoxic concentration) were calculated by nonlinear regression analysis (Table 1). The CC50 values can be used to calculate the PIF (photo-irritancy factor) for each test compound according to the following formula: PIF = CC50/PC50.
(§2) BALB/3T3 cells were cultured in 75 cm^2 tissue culture flasks in DMEM, 10% FBS, 2 mM glutamine, and antibiotics (penicillin 100 U/mL and streptomycin-100 µg/mL) at 37 °C, 5% CO2, and 90% relative humidity. Cytotoxicity/phototoxicity was assessed by a validated BALB/3T3 clone A31 neutral red uptake assay (3T3 NRU test). Briefly, cells were plated in a 96-well microtiter plate at a density of 1 × 10^4 cells/100 µL/well and incubated for 24 h. A wide concentration range was applied for the test compounds. For the phototoxicity tests, 96-well plates were irradiated with a dose of 2.4 J/cm^2, and the cells were incubated for an additional 24 h. After treatment with neutral red medium, washing, and treatment with the ethanol/acetic acid solution, the absorption was measured on a TECAN microplate reader (TECAN, Grödig, Austria) at a wavelength of 540 nm. The light source which we used was a light-emitting diode (LED) matrix—an artificial solar light simulator Helios-iO, model LE-9ND55-H—5500K (SERIC Ltd., Tokyo, Japan).
(§3) Cytotoxicity/phototoxicity were expressed as CC50/PC50 values (concentrations required for 50% cytotoxicity/phototoxicity), calculated using non-linear regression analysis (GraphPad Software GraphPad Prism 9.5.1, San Diego, CA, USA). The CC50 values were used to calculate the PIF (photo-irritancy factor) for each test substance, according to the following formula: […]

MCF-10A = experiment: ζ-potential measurement, MCF-10A; format: cell-based, human; details: PBS pH 7.4, 37 °C; more negative after treatment
Procedure: (§4) First, the ζ-potential of each cell line was measured, and all obtained values were negative (Figure 6A). The Student t-test statistical analysis which was applied distinguished the ζ-potentials of the three studied cell lines with p < 0.05, and the values followed the order of MCF-7 > MDA-MB-231 > MCF-10A. […] represents the relative percentage change of the ζ-potential induced by the studied compounds for the different cell lines. Compound 2 was able to decrease the ζ-potential of the cells with the following ranking: MCF-7 (42%) > MCF-10A (24%) > MDA-MB-231 (16%). For compound 4, the ranking was as follows: MCF-10A (50%) > MDA-MB-231 (46%) > MCF-7 (3%). For compound 5, this was MCF-10A (36%) > MCF-7 (22%) > […].
(§5) The zeta (ζ ξ) potential is the electrostatic potential at the shear plane of a cell, and is related to both its surface charge and the local environment. The ζ-potential of the intact cells and the treated ones was recorded in a cell suspension (0.5 × 10^6 cells/mL) in PBS, using the electrophoretic light-scattering technique on a Zetasizer Nano ZS analyzer (Malvern Instruments, Great Britain). Laser Doppler electrophoresis and velocimetry of cells were used to determine the ζ-potential by measuring the speeds of the cells in PBS upon the application of an electric field. The ζ-potential was calculated based on the Helmholtz–Smoluchowski equation. The measurements were performed in a U-shaped cell with gold-plated electrodes at 37 °C.
(§6) Figure 6 ζ-potential of the investigated cell lines, MCF-10A, MCF-7, and MDA-MB-231 (A). Alterations in the ζ-potential after treatment with compounds 2 (pink), 4 (blue), and 5 (green) (B). All zeta potential values were measured in PBS buffer (137 mM NaCl, 2.7 mM KCl, 8 mM Na2HPO4, and 2 mM KH2PO4; pH 7.4) at 37 °C. Two independent experiments were carried out for each cell line, and each sample was measured 6 times. (*; ***) denote p < 0.05 and p < 0.001 as follows. […]

MCF-7 = experiment: ζ-potential measurement, MCF-7; format: cell-based, human; details: PBS pH 7.4, 37 °C; more negative after treatment
Procedure: as §4, §5, §6

MDA-MB-231 = experiment: ζ-potential measurement, MDA-MB-231; format: cell-based, human; details: PBS pH 7.4, 37 °C; more negative after treatment
Procedure: as §4, §5, §6

BALB 3T3 cells = experiment: in vitro 3T3 NRU test, cytotoxicity; format: cell-based, mouse; details: for IC50: BALB 3T3, value in brackets
Procedure: as §1, §2, §3

[2] = BALB 3T3, 24 h, NRU, no irradiation (CC50), read-out: IC50 of Mean ± SD, Cytotoxicity
[3] = BALB 3T3, value in brackets, read-out: IC50, Cytotoxicity (converted)

Row | SMILES | IC50 at 24 h [1, 2] | IC50 at 24 h [1, 3] | Δζ/ζ relative change of ζ-potential, MCF-10A (MCF-10A) | Δζ/ζ relative change of ζ-potential, MCF-7 (MCF-7) | Δζ/ζ relative change of ζ-potential, MDA-MB-231 (MDA-MB-231) | IC50 of Mean ± SD, Cytotoxicity (BALB 3T3 cells; BALB 3T3, 24 h, NRU, no irradiation (CC50)) | IC50 (BALB 3T3 cells)
1 | CCOC(=O)c1sc2nc(C)nc(N)c2c1C [Compound 5, Ethyl 4-Amino-2,5-Dimethyl-Thieno[2,3-d]Pyrimidine-6-Carboxylate] | 1540 ± 61.5 µg/mL | 5.4 mM | 35.94% and 36% | 22.27% and 22% | 23.31% and 23% | – | –
2 | CCOC(=O)c1sc2nc(CC)nc(N)c2c1C [Compound 4, Ethyl 4-Amino-2-Ethyl-5-Methylthieno[2,3-d]Pyrimidine-6-Carboxylate] | 2630 µg/mL | 9.37 mM | 50.48% and 50% | 3.35% and 3% | 45.51% and 46% | 1678 ± 70.4 µg/mL | 6.4 mM
3 | CCOC(=O)Cc1nc(N)c2c(C)c(C(=O)OCC)sc2n1 [Compound 2, Ethyl 4-Amino-2-(2-Ethoxy-2-Oxoethyl)-5-Methylthieno[2,3-d]Pyrimidine-6-Carboxylate] | 1740 ± 75.5 µg/mL | 5.37 mM | 24.27% and 24% | 42.14% and 42% | 16.04% and 16% | – | 5.4 mM
